Experimental data taken from patent US5486525A, “Platelet activating factor antagonists: imidazopyridine indoles” (priority 1994, dated 1996).

Each molecule was assayed against T1, PAF receptor (Oryctolagus cuniculus, UniProt G1TEI7) (assay: PAF receptor binding assay: inhibition of specific [^3 H]C18 -PAF binding to rabbit platelet membranes). Conditions: not given.
T1 construct: platelet membranes were prepared by centrifugation and washing; tissue Pel-Freez (Rogers, AR); host or cells: rabbit blood platelets (membranes prepared from citrated whole rabbit blood)
T1 sequence (G1TEI7 1-342): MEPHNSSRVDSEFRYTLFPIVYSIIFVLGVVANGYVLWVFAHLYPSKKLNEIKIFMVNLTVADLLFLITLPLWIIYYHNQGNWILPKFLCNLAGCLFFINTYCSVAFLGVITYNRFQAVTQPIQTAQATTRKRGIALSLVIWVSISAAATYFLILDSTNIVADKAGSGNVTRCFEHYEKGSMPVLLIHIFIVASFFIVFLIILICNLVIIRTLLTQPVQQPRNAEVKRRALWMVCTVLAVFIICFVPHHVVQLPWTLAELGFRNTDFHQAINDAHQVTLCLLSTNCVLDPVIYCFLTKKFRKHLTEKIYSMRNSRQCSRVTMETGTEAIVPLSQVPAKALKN

Row | Molecule | Ki [nM] | inhibition at 100 µM [%]
1 | Cc1nc2ccccc2n1Cc1ccc(C(=O)c2cn(C(=O)N(C)C)c3cc(-c4ccc(F)cc4)ccc23)cc1 [Example 2, 1-N,N-Dimethylcarbamoyl-6-(4-fluorophenyl)-3-{4-[(1H-2-methylbenzimidazolyl)methyl]benzoyl}indole] | 56 | –
2 | Cc1nc2cnccc2n1Cc1ccc(C(=O)c2cn(C(=O)N(C)C)c3cc(-c4ccc(F)cc4)ccc23)cc1 [Example 4, 1-N,N-Dimethylcarbamoyl-6-(4-fluorophenyl)-3-{4-[(1H-2-methylimidazo[4.5-c]pyrid-1-yl)methyl]benzoyl}indole] | 2.3 | –
3 | Cc1nc2ccncc2n1Cc1ccc(C(=O)c2cn(C(=O)N(C)C)c3cc(-c4ccc(F)cc4)ccc23)cc1 [Example 7, 1-N,N-Dimethylcarbamoyl-6-(4-fluorophenyl)-3-{4-[(3H-2-methylimidazo[4.5-c]pyrid-3-yl)methyl]benzoyl}indole] | 700 | –
4 | Cc1nc2cnccc2n1-c1ccc(C(=O)c2cn(C(=O)N(C)C)c3cc(-c4ccc(F)cc4)ccc23)cc1 [Example 10, 1-N,N-Dimethylcarbamoyl-6-(4-fluorophenyl)-3-[4-(1H-2-methylimidazo[4.5-c]pyrid-1-yl)benzoyl]indole] | 258 | –
5 | Cc1nc2cnccc2n1Cc1cccc(C(=O)c2cn(C(=O)N(C)C)c3cc(-c4ccc(F)cc4)ccc23)c1 [Example 12, 1-N,N-Dimethylcarbamoyl-6-(4-fluorophenyl)-3-{3-[(1H-2-methylimidazo[4.5-c]pyrid-1-yl)methyl]benzoyl}indole] | 140 | –
6 | Cc1nc2cnccc2n1Cc1ccc(C(=O)c2cn(C(=O)N(C)C)c3ccccc23)cc1 [Example 14, 1-N,N-Dimethylcarbamoyl-3-{4-[(1H-2-methylimidazo[4.5-c]pyrid-1-yl)methyl]benzoyl}indole] | 5 | –
7 | Cc1nc2ccn(Cc3ccc(C(=O)c4cn(C(=O)N(C)C)c5ccccc45)cc3)cc-2n1 [Example 16, 1-N,N-Dimethylcarbamoyl-3-[4-(5H-2-methylimidazo[4.5-c]pyrid-5-ylmethyl)benzoyl]indole] | – | 18
8 | Cc1nc2cnccc2n1Cc1cccc(C(=O)c2cn(C(=O)N(C)C)c3ccccc23)c1 [Example 18, 1-N,N-Dimethylcarbamoyl-3-{3-[(1H-2-methylimidazo[4.5-c]pyrid-1-yl)methyl]benzoyl}indole] | 323 | –

Same assay, conditions: Table 1; rabbit platelet membranes, 0.6 nM [^3 H]C18 -PAF, 60 minutes at room temperature; Ki by Cheng and Prusoff; read-out: Ki

Row | Molecule | Ki [nM]
9 | 1-N,N-Dimethylcarbamoyl-4-chloro-3-{4-[(1H-2-methyl-5- and 6-chlorobenzimidazoyl)methyl]benzoyl}indole [Example 159] | 9
10 | Cc1nc2cnccc2n1Cc1ccc(C(=O)c2c[nH]c3cc(-c4ccc(F)cc4)ccc23)cc1 [Example 3, 6-(4-Fluorophenyl)-3-{4-[(1H-2-methylimidazo[4.5-c]pyrid-1-yl)methyl]benzoyl}indole] | 75
11 | Cc1nc2ccncc2n1Cc1ccc(C(=O)c2c[nH]c3cc(-c4ccc(F)cc4)ccc23)cc1 [Example 6, 6-(4-Fluorophenyl)-3-{4-[(3H-2-methylimidazo[4.5-c]pyrid-3-yl)methyl]benzoyl}indole] | 140
12 | Cc1nc2cnccc2n1-c1ccc(C(=O)c2c[nH]c3cc(-c4ccc(F)cc4)ccc23)cc1 [Example 9, 6-(4-Fluorophenyl)-3-[4-(1H-2-methylimidazo[4.5-c]pyrid-1-yl)benzoyl]indole] | 60
13 | Cc1nc2cnccc2n1Cc1cccc(C(=O)c2c[nH]c3cc(-c4ccc(F)cc4)ccc23)c1 [Example 11, 6-(4-Fluorophenyl)-3-{3-[(1H-2-methylimidazo[4.5-c]pyrid-1-yl)methyl]benzoyl}indole] | 86
14 | Cc1nc2cnccc2n1Cc1ccc(C(=O)c2c[nH]c3ccccc23)cc1 [Example 13, 3-{4-[(1H-2-Methylimidazo[4.5-c]pyrid-1-yl)methyl]benzoyl}indole] | 150
15 | Cc1nc2cnccc2n1Cc1cccc(C(=O)c2c[nH]c3ccccc23)c1 [Example 17, 3-{3-[(1H-2-Methylimidazo[4.5-c]pyrid-1-yl)methyl]benzoyl}indole] | 422
